Data reported in US20100203175A1, “DEGLYCATION OF AGEs” (BASF BEAUTY CARE SOLUTIONS FRANCE S.A.S., priority 2007, published 2010).

target: AGEs (bovine serum albumin (BSA) incubated with a reducing sugar) (Bos taurus, UniProt P02769); test: Reversion of the Maillard reaction: deglycation of AGEs prepared from bovine serum albumin and glucose, fluorescence read-out; assay type: biochemical; details: characterized molecules, in particular at 1×10^−1% in water or DMSO; about 50° C., 3 weeks; fluorescence with active principle versus positive control (15 mM aminoguanidine)
Sequence (P02769 25-607): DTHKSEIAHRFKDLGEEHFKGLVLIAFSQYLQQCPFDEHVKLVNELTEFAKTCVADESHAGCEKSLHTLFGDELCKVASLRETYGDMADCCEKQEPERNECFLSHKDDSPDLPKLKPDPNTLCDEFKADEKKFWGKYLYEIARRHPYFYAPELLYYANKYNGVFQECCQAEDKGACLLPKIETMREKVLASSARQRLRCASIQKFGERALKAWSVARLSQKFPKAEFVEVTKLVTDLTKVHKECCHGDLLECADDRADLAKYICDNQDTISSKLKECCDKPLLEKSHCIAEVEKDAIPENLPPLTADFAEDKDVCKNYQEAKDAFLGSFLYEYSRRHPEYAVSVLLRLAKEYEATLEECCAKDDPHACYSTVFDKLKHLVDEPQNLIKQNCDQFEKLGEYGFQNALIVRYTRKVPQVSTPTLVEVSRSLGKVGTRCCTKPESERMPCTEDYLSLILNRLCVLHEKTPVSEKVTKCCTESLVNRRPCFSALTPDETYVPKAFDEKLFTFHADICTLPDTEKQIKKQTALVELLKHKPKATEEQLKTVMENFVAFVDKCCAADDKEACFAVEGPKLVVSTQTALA
Procedure: The preparation of a solution containing a protein and a reducing sugar was carried out extemporaneously as follows: a solution of bovine serum albumin (BSA) at a concentration between 1.5 μM and 1.5M, preferably between 15 μM and 500 μM was incubated with a solution of a reducing sugar such as glucose, fructose, etc., preferably with glucose at a concentration between 0.1M and 10M and preferably between 0.5M and 5M.
The incubation was maintained between 1 and 5 weeks, and preferably for 3 weeks.
The measure of inhibition of the AGEs was carried out by measuring the fluorescence (excitation wavelength between 350 and 375 nm, preferably at 355 nm; emission wavelength between 420 and 450 nm, preferably at 430 nm). The reversion of the Maillard reaction was calculated by comparing the fluorescence of AGEs set at 100% (maximum fluorescence) with the fluorescence of AGEs+active agent tested.
The preparation of a protein/reducing sugar solution was carried out according to the method described in Example 1 (paragraph 1).
The preparation of a solution of protein/reducing sugar was carried out according to the method described in Example 1 (paragraph 1). […]

Row | Structure (SMILES) | % deglycation [%]
1 | Cc1c(C)c2c(c(C)c1O)CCC(C)(C(=O)O)O2 (centres unmarked) [6-Hydroxy-2,5,7,8-tetramethylchromane-2-carboxylic acid] | 100
2 | CNC(=O)Oc1ccc2c(c1)[C@]1(C)CCN(C)[C@@H]1N2C [Physostigmine] | 87
3 | Cc1cn2c(=O)c3ccccc3nc2n2c(=O)c3ccccc3nc12 [6-Methyl-5,7a,13,13b-tetraazapentaphene-8,14-dione] | 100
4 | Cc1cc(C)c2c(c1O)C(=O)OC2 [7-Hydroxy-4,6-dimethyl phthalide] | 100
5 | Oc1cc(O)c2c(c1)O[C@@H](c1ccc(O)c(O)c1)[C@H](O)C2 (relative stereo) [trans-3,3′,4′,5,7-Pentahydroxyflavane] | 100
6 | O=C(O)Cc1ccc(O)c(O)c1 [3,4-Dihydroxyphenylacetic acid (DOPAC), 3,4-Dihydroxyphenylacetic acid] | 100
7 | O=C1Cc2ccccc2N1 [Oxindole] | 100
8 | Nc1ccc(O)cc1 [4-Aminophenol] | 100
9 | Oc1ccc2cc[nH]c2c1 [Indole alcohol amine II, 6-Hydroxyindole] | 100

Continued, values first:

Row | % deglycation [%] | Structure (SMILES)
10 | 100 | CC(Cc1ccc(O)c(O)c1)C(C)Cc1ccc(O)c(O)c1 (centres unmarked) [Nordihydroguaiaretic acid]
11 | 88 | O=C(O)C=Cc1ccc(O)c(O)c1 [3,4-Dihydroxycinnamic acid]
12 | 100 | COc1cc(C=CC(=O)O)cc(OC)c1O [3,5-Dimethoxy-4-hydroxycinnamic acid]
13 | 100 | Oc1cc(O)cc(O)c1 [1,3,5-Trihydroxybenzene (phloroglucinol), 1,3,5-Trihydroxybenzene]
14 | 97 | O=c1cc(CO)occ1O [2-Hydroxymethyl-5-hydroxy-γ-pyrone]
